The target of one assay is FGFR-4 (Homo sapiens, UniProt P22455, G388R). The assay is classed as cell-based.
In a further assay the target is FGFR-1 (Homo sapiens, UniProt P11362). Format: cell-based.
FGFR-1, sequence (P11362 22-822): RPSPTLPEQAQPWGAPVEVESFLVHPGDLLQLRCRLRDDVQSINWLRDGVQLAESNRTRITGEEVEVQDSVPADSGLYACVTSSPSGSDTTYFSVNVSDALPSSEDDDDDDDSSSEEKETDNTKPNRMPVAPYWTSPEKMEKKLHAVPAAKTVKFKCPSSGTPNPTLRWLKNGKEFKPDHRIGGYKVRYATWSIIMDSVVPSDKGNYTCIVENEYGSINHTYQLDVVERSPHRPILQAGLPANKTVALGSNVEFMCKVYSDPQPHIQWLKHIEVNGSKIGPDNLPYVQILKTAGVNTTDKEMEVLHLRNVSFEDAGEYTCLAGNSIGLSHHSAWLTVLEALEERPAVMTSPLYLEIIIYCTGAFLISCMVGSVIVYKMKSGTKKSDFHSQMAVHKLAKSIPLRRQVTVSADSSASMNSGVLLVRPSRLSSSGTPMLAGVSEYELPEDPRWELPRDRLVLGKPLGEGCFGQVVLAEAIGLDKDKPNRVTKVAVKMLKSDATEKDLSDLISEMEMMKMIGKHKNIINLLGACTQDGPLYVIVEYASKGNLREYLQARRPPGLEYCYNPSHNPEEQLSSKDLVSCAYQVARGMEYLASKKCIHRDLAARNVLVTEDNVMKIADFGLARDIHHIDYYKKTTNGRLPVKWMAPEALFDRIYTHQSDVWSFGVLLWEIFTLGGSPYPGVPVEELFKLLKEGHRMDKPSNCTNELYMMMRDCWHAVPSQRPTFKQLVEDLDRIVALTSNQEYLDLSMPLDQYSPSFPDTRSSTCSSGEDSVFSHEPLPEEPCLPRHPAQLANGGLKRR

FGFR-4, sequence (P22455 22-802 G388R): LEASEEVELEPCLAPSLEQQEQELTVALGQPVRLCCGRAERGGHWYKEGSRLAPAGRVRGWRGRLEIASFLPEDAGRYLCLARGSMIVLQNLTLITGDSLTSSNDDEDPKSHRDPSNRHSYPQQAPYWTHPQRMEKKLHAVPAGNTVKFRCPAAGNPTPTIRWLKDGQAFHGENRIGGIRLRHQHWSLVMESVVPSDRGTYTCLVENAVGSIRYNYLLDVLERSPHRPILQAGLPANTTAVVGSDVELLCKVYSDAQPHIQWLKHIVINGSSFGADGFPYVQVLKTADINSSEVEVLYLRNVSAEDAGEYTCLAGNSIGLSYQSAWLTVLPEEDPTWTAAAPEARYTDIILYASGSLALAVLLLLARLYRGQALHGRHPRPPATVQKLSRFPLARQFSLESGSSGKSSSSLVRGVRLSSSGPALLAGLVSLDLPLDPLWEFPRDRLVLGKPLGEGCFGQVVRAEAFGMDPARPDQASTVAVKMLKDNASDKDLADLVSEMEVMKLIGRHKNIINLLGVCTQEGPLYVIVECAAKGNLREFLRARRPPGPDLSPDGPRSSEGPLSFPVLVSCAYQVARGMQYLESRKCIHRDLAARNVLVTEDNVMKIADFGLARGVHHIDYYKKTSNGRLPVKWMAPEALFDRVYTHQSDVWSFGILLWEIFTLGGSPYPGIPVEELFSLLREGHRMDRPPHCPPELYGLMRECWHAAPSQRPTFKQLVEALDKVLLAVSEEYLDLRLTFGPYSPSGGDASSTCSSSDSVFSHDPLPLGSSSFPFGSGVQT

In the case of AZ8010, the entries for the “% inhibition at 100 nM” value at FGFR-4 and at FGFR-1 were 75 and 86, respectively.

For the origin of these results see publication PMC4654778 (Clinical cancer research : an official journal of the …, 2012).
